Laboratory results as given in PMC7031696 (Cell chemical biology, 2019).
pIC50: −log10 of the molar value. In brackets after ≈: the same amount, converted by molar mass. Like-named read-outs stand apart in the source and are kept apart here.

Key:
[1] = physchem
[2] = system: Plasmodium falciparum 3D7-A10 parasites; experiment: Stage specificity assay (8-h exposure of synchronized stages, IC50^8h); format: cell-based; conditions: for IC50 / pIC50: Plasmodium falciparum
[3] = 1.5 h, 500 μM, pH 7.4
[4] = system: asynchronous 3D7-A10 parasite cultures; experiment: Standard 72-h exposure asexual blood stage susceptibility assay (IC50^72h); format: cell-based, Plasmodium falciparum; conditions: Plasmodium falciparum, 3D7, 72 h, read-out: Overall (72hr assay) Mean IC50 (IC50^72h)
[5] = system: 3D7-MR4 trophozoite parasite-infected RBCs; experiment: Metabolomic profiling (hydrophilic metabolite changes, UHPLC-MS); format: cell-based, Plasmodium falciparum

Cc1cc(Nc2ccc(OCc3ccccc3)cc2)nc2cc(O)ccc12 [MMV007181]
solubility at 1.5 h ([1]; pH 7.4): > 100 µM
solubility at 1.5 h ([1]; pH 7.4, aqueous buffer, kinetic from dmso stock): 100 to 500 µM (≈ 35.6 to 178 µg/mL)
Ratio lowest IC50 8hr/IC50 72hr ([2]; 3D7-A10): 3.0
killing in stage specificity assay ([2]; 8-h exposures, survival curves): incomplete killing at all asexual blood stages
IC50 ([2]; 3D7, read-out: Early rings IC50 (IC50^8h), 8-h exposure 0–8 hr, bound given in μM): > 25 µM
pIC50 ([2]; 3D7, read-out: Early trophozoites Mean IC50 (IC50^8h), 8-h exposure 16–24 hr, 3D7-A10, survival at 60 h): 6.60
IC50 ([2]; 3D7, read-out: Late rings IC50 (IC50^8h), 8-h exposure 8–16 hr, bound given in μM): > 25 µM
pIC50 ([2]; 3D7, read-out: Late trophozoites Mean IC50 (IC50^8h), 8-h exposure 24–32 hr, 3D7-A10, survival at 60 h): 6.56
pIC50 ([2]; 3D7, read-out: Schizonts Mean IC50 (IC50^8h), 8-h exposure 32–40 hr, 3D7-A10, survival at 60 h): 6.24
Stage of peak activity (Figure 6) ([2]; period when the parasite was most susceptible (lowest IC50^8h)): trophozoites
Peak Activity (Table S1) ([2]; stage(s) with the lowest IC50^8h): Trophs
Ratio fil./std. (absorbance filtrate/standard) [3]: 0.69
pIC50 [4]: 7.07
peptide levels (hemoglobin catabolism signature) ([5]; 10 × IC50^72h, 2.5 hr, trophozoites): decreased peptide levels
Log2(fold changes) 3-phosphoglycerate ([5]; metabolite 3-phosphoglycerate, log2 fold change): -0.1714
Log2(fold changes) 4-Pyridoxic acid ([5]; metabolite 4-Pyridoxic acid, log2 fold change): -0.2247
Log2(fold changes) 4-aminobutyrate ([5]; metabolite 4-aminobutyrate, log2 fold change): -0.0986
Log2(fold changes) 4-phosphopantetheine ([5]; metabolite 4-phosphopantetheine, log2 fold change): 0.6961
Log2(fold changes) 4-phosphopantothenate ([5]; metabolite 4-phosphopantothenate, log2 fold change): -0.6638
Log2(fold changes) 5-aminopentanoic acid ([5]; metabolite 5-aminopentanoic acid, log2 fold change): -0.2294
Log2(fold changes) 5-methyl-THF ([5]; metabolite 5-methyl-THF, log2 fold change): 0.0000
Log2(fold changes) 5-phosphoribosyl-1-pyrophosphate ([5]; metabolite 5-phosphoribosyl-1-pyrophosphate, log2 fold change): 0.0000
Log2(fold changes) 6-phospho-D-gluconate ([5]; metabolite 6-phospho-D-gluconate, log2 fold change): -0.1453
Log2(fold change) HVDD ([5]; metabolite HVDD): -4.4739
Log2(fold change) Hydroxyisocaproic acid ([5]; metabolite Hydroxyisocaproic acid): 0.0000
Log2(fold change) IDP ([5]; metabolite IDP): -0.0045
Log2(fold change) IMP ([5]; metabolite IMP): -0.1201
Log2(fold change) Inositol ([5]; metabolite Inositol): 0.0000
Log2(fold change) Isopentyl-PP ([5]; metabolite Isopentyl-PP): -0.4346
Log2(fold change) L-arginino-succinate ([5]; metabolite L-arginino-succinate): -0.6665
Log2(fold change) LD ([5]; metabolite LD): -0.1484
Log2(fold change) Myristoyl/tetradecanoyl-CoA ([5]; metabolite Myristoyl/tetradecanoyl-CoA): 0.0000
Log2(fold change) N-Acetyl-L-alanine ([5]; metabolite N-Acetyl-L-alanine): -0.3632
Log2(fold change) N-acetyl-L-ornithine ([5]; metabolite N-acetyl-L-ornithine): -2.0310
Log2(fold change) N-acetyl-glucosamine-1/6-phosphate ([5]; metabolite N-acetyl-glucosamine-1/6-phosphate): -0.0060
Log2(fold change) N-acetyl-glutamate ([5]; metabolite N-acetyl-glutamate): 0.1987
Log2(fold change) N-acetyl-glutamine ([5]; metabolite N-acetyl-glutamine): 0.1663
Log2(fold change) N-carbamoyl-L-aspartate ([5]; metabolite N-carbamoyl-L-aspartate): -0.1286
Log2(fold change) NAD+ ([5]; metabolite NAD+): -0.1335
Log2(fold change) NADH ([5]; metabolite NADH): 2.9716
Log2(fold change) NADP+ ([5]; metabolite NADP+): -0.2177
Log2(fold change) NADPH ([5]; metabolite NADPH): 2.7260
Log2(fold change) O-acetyl-L-serine ([5]; metabolite O-acetyl-L-serine): -0.0650
Log2(fold change) Octoluse 8/1P ([5]; metabolite Octoluse 8/1P): -0.2583
Log2(fold change) Octoluse Bisphosphate ([5]; metabolite Octoluse Bisphosphate): -0.7020
Log2(fold change) PD ([5]; metabolite PD): -3.3017
Log2(fold change) PE ([5]; metabolite PE): -2.9801
Log2(fold change) PEE ([5]; metabolite PEE): -2.9268
Log2(fold change) PEEK ([5]; metabolite PEEK): -4.7351
Log2(fold change) PVNF ([5]; metabolite PVNF): -4.5493
Log2(fold change) Pyroglutamic acid ([5]; metabolite Pyroglutamic acid): 0.2482
Log2(fold change) Pyrophosphate ([5]; metabolite Pyrophosphate): 0.0000
Log2(fold change) Ribose-5-phosphate ([5]; metabolite Ribose-5-phosphate): -0.4059
Log2(fold change) S-adenosyl-L-homocysteine ([5]; metabolite S-adenosyl-L-homocysteine): -0.1192
Log2(fold change) S-adenosyl-L-methioninamine ([5]; metabolite S-adenosyl-L-methioninamine): -3.2130
Log2(fold change) S-adenosyl-L-methionine ([5]; metabolite S-adenosyl-L-methionine): -0.1206
Log2(fold change) S-methyl-5'-thioadenosine ([5]; metabolite S-methyl-5'-thioadenosine): 0.4702
Log2(fold change) SD ([5]; metabolite SD): -0.6167
Log2(fold change) SDL ([5]; metabolite SDL): 0.0000
Log2(fold change) SID ([5]; metabolite SID): -0.9911
Log2(fold change) Sedoheptulose bisphosphate ([5]; metabolite Sedoheptulose bisphosphate): -0.4907
Log2(fold change) Thiamine pyrophosphate ([5]; metabolite Thiamine pyrophosphate): -0.0717
Log2(fold changes) UDP-D-glucose ([5]; metabolite UDP-D-glucose, log2 fold change): 0.0982
Log2(fold changes) UDP-D-glucuronate ([5]; metabolite UDP-D-glucuronate, log2 fold change): -0.0548
Log2(fold changes) UDP-N-acetyl-glucosamine ([5]; metabolite UDP-N-acetyl-glucosamine, log2 fold change): -0.0365
Log2(fold changes) UDP ([5]; metabolite UDP, log2 fold change): -0.2952
Log2(fold changes) UMP ([5]; metabolite UMP, log2 fold change): -0.1123
Log2(fold changes) UTP ([5]; metabolite UTP, log2 fold change): -0.0747
Log2(fold change) hydroxyphenylpyruvate ([5]; metabolite hydroxyphenylpyruvate): 0.0000
Log2(fold change) hydroxyproline/Aminolevulinate ([5]; metabolite hydroxyproline/Aminolevulinate): -0.1078
Log2(fold change) hypoxanthine ([5]; metabolite hypoxanthine): 0.1087
Log2(fold change) indole ([5]; metabolite indole): -0.0870
Log2(fold change) inosine ([5]; metabolite inosine): -0.1121
Log2(fold change) isoleucine ([5]; metabolite isoleucine): 0.0000
Log2(fold change) lactate ([5]; metabolite lactate): -0.3282
Log2(fold change) leucine ([5]; metabolite leucine): -0.3120
Log2(fold change) lysine ([5]; metabolite lysine): -2.3197
Log2(fold change) malate ([5]; metabolite malate): -0.7445
Log2(fold change) maleic acid ([5]; metabolite maleic acid): -0.7914
Log2(fold change) methionine ([5]; metabolite methionine): 0.1152
Log2(fold change) myo-inositol ([5]; metabolite myo-inositol): -0.3555
Log2(fold change) nicotinamide mononucleotide ([5]; metabolite nicotinamide mononucleotide): -0.2883
Log2(fold change) nicotinate ([5]; metabolite nicotinate): 0.1126
Log2(fold change) ornithine ([5]; metabolite ornithine): -0.1929
Log2(fold change) orotate ([5]; metabolite orotate): -0.4250
Log2(fold change) orotidine-5'-phosphate ([5]; metabolite orotidine-5'-phosphate): -1.5378
Log2(fold change) oxaloacetate ([5]; metabolite oxaloacetate): -0.5706
Log2(fold change) p-aminobenzoate ([5]; metabolite p-aminobenzoate): 0.0000
Log2(fold change) p-hydroxybenzoate ([5]; metabolite p-hydroxybenzoate): 0.0981
Log2(fold change) pantothenate ([5]; metabolite pantothenate): 0.1598
Log2(fold change) phenylalanine ([5]; metabolite phenylalanine): -0.4038
Log2(fold change) phenylpyruvate ([5]; metabolite phenylpyruvate): 0.0000
Log2(fold change) phosphoenolpyruvate ([5]; metabolite phosphoenolpyruvate): 0.0294
Log2(fold change) prephenate ([5]; metabolite prephenate): -0.1912
Log2(fold change) proline ([5]; metabolite proline): -0.4365
Log2(fold change) pyridoxine ([5]; metabolite pyridoxine): -0.1437
Log2(fold change) pyruvate ([5]; metabolite pyruvate): -0.7096
Log2(fold change) riboflavin ([5]; metabolite riboflavin): 0.3011
Log2(fold change) ribose ([5]; metabolite ribose): -0.0087
Log2(fold change) ribose-phosphate ([5]; metabolite ribose-phosphate): -0.7988
Log2(fold change) ribulose-5-phosphate ([5]; metabolite ribulose-5-phosphate): -0.4319
Log2(fold change) serine ([5]; metabolite serine): -0.2012
Log2(fold change) sn-glycerol-3-phosphate ([5]; metabolite sn-glycerol-3-phosphate): 0.0673
Log2(fold change) succinate/Methylmalonic acid ([5]; metabolite succinate/Methylmalonic acid): -0.1908
Log2(fold change) succinyl-CoA/methylmalonyl-CoA ([5]; metabolite succinyl-CoA/methylmalonyl-CoA): 0.0000
Log2(fold change) taurine ([5]; metabolite taurine): 0.0434
Log2(fold change) thiamine ([5]; metabolite thiamine): -0.2929
Log2(fold change) threonine/homoserine ([5]; metabolite threonine/homoserine): -0.5619
Log2(fold change) thymidine ([5]; metabolite thymidine): 0.0000
Log2(fold changes) thymine ([5]; metabolite thymine, log2 fold change): 0.0000
Log2(fold changes) trehalose-6-Phosphate ([5]; metabolite trehalose-6-Phosphate, log2 fold change): 0.0000
Log2(fold changes) tryptophan ([5]; metabolite tryptophan, log2 fold change): -0.4056
Log2(fold changes) tyrosine ([5]; metabolite tyrosine, log2 fold change): -0.2656
Log2(fold changes) uridine ([5]; metabolite uridine, log2 fold change): 0.0000
